Reference: article PMC11530130, “Peripherally restricted PICK1 inhibitor mPD5 ameliorates pain behaviors in murine inflammatory and neuropathic pain models” (JCI Insight, 2024)
Where “and” joins values, the source holds several entries; their conditions need not be identical. Equal values may be shown once.

System: mice, CFA model of inflammatory pain
Assay: CFA model, Hargreaves test (thermally evoked pain)
Format: in vivo, mouse
Conditions: s.c. 10 μmol/kg
Description: Induction of inflammatory pain (CFA model).
Injury was induced on the right hind paw, whereas the contralateral left hind paw was used as internal control of the C57BL/6J male and female mice (Janvier, France). The inflammatory pain was induced by injection of 50 μL undiluted Complete Freund’s Adjuvant (CFA) (F5881, Sigma) unilaterally into the intraplantar surface of the right hind paw, whereas control mice were injected with the same amount of 0.9 % saline (B. Braun, Germany). All intraplantar injections were performed with an insulin needle (0.3 mL BD Micro-Fine) while the animal was under isoflurane anaesthesia (2%) for maximum 60 seconds. Von Frey was applied up to 11 days after unilateral CFA injection depending on the experiment. (For Figure 3A, the experiment was run in cohort with Figure 1A of (9)).
Induction of neuropathic pain (SNI model). […]
Post-surgical analgesia included s.c. injection of 5 mg/kg carprofen (Carprosan vet, 50 mg/mL mixed 1:25 in sterile ddH2O, Dechra, Le Vet Beheer B.V., Netherlands, Batch: 050520) right after surgery and the following day. Post-surgical care included daily severity scoring for four days, and medical clips removed. X-ray imaging (IVIS Lumina XR Apparatus, Caliper Life Sciences, Belgium) was conducted to estimate the relative femoral bone density of the ipsilateral femur at baseline and at the experimental endpoint. The test battery of the CIBP model was carried out 45 or 90 min after morphine and mPD5 administration respectively to accommodate the peak efficacy […]
Mechanically evoked pain (von Frey test).
Unless otherwise specified, von Frey occurred as described in the following. Animals were habituated to the experimental room for a minimum of 60 min before initiation of the experiment. Mechanical paw withdrawal threshold (PWT) was determined by von Frey measurements of both hind paws. Von Frey filaments ranging from 0.04 to 2 g (g = gram- […]
Filaments in ascending order were applied to the frontocentral plantar surface of the hind paws.
Mice were placed in PVC plastic boxes (11.5 cm x 14 cm) on a wire mesh and allowed minimum 20 min habituation prior of experiment initiation. Each von Frey hair was applied five times with adequate resting periods between each application and number of withdrawals recorded. The withdrawal threshold was determined as the von Frey filament eliciting at least three positive trials out of the five applications in two consecutive filaments. A positive trial was defined as sudden paw withdrawal, flinching and/or paw licking induced by the filament.
For the CIBP model, two habituation sessions were performed on separated days with mice placed in the von Frey equipment for 1-1.5 hours in the presence of the experimenter on day one and random von Frey pocking with the 0.6 g filament on day two. Von Frey monofilaments (North Coast Touch Test, North Coast Medical, Inc.) with target forces of 0.04g, 0.07g, 0.16g, […]
down method” (PWT=10Xf+kδ) starting with the 0.6 g filament. Positive response was defined as; withdrawal, shaking or grooming of paw following a 2-3 second stimulation. In case, of unclear response, stimulus was repeated after 10-15 seconds.
For the STZ model, the mechanical threshold response of the injected mice was measured with […]
injection of test compounds on day 14, mechanical threshold was measured at 1 hour, 2 hours, 4 hours and 6 hours and again on day 15. […]
Thermally evoked pain (Hargreaves test).
A baseline Hargreaves test was performed on day 0 before inflammatory pain was induced as described in section 2.13. In the Hargreaves test, the mouse was placed in a container on a glass table and left to habituate for at least 15 min. Using the Hargreaves apparatus, a heat beam from beneath was directed towards the hind paws of the mouse, and the paw withdrawal time […]
was registered automatically. The cut off was set to maximum 30 seconds to avoid skin injury and the experiment was repeated 5 times for each paw with at least five min in between […]
measurements. […]

CCCCCCCCCCCCCC(=O)N(CCOCCOCCC(=O)N[C@@H](Cc1c[nH]cn1)C(=O)N[C@@H](Cc1c[nH]c2ccccc12)C(=O)N[C@@H](CC(C)C)C(=O)N[C@@H](CCCCN)C(=O)N[C@H](C(=O)O)C(C)C)CCOCCOCCC(=O)N[C@@H](Cc1c[nH]cn1)C(=O)N[C@@H](Cc1c[nH]c2ccccc12)C(=O)N[C@@H](CC(C)C)C(=O)N[C@@H](CCCCN)C(=O)N[C@H](C(=O)O)C(C)C [mPD5, myristoyl-NPEG4-(HWLKV)2]
effect on the contralateral paw (Hargreaves): No effect | effect on thermal hypersensitivity of the ipsilateral paw (1 hour after administration): reverted | paw withdrawal latency (Hargreaves), individual mice (contralateral paw, 1 h): 10.93 and 8.17 and 12.67 and 7.53 and 10.3 and 14.03 | paw withdrawal latency (Hargreaves), individual mice (contralateral paw, 5 h): 15.97 and 9.47 and 12.27 and 10.97 and 14.37 and 8.3 | paw withdrawal latency (Hargreaves), individual mice (contralateral paw, 21 h): 15.23 and 12.33 and 19.73 and 9.13 and 7.03 and 15.57 | paw withdrawal latency (Hargreaves), individual mice (ipsilateral paw, 1 h): 8.4 and 16.3 and 10.87 and 15.83 and 12.17 and 11.77 | paw withdrawal latency (Hargreaves), individual mice (ipsilateral paw, 5 h): 10.8 and 9.77 (2×) and 5.13 and 6.33 and 4.77 | paw withdrawal latency (Hargreaves), individual mice (ipsilateral paw, 21 h): 6.3 and 9.13 and 2.77 and 3.3 and 2.37 and 11.83
